Reference: US6479435B1, “Diaryl ethers and processes for their preparation and herbicidal and desiccant compositions containing them” (ISK Americas Incorporated, priority 1997, dated 2002)

Key:
Assay type in all cases: in vivo
[1] = test system: upland rice (Oryza sp., var.Tebonnet, RICE); assay: Post-emerge greenhouse test, crop damage rating; conditions: 14 days after application
Summary of the method: (§1)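 Scores use a 0 (no damage) to 100 (complete kill) scale, taken 14 days after a foliar spray. Acetone solutions with 0.25% v/v non-ionic surfactant were applied by track sprayer at 187 l/ha and 63-1000 g ai/ha to bottom-watered 2-3 leaf plants.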

[2] = test system: field corn (Zea mays L., var. Dekalb 535, CORN); assay: Post-emerge greenhouse test, crop damage rating; conditions: 14 days after application
Summary of the method: as §1

[3] = test system: upland rice (Oryza sp., var.Tebonnet, RICE); assay: Pre-emerge greenhouse test, crop damage rating; conditions: 14 days after application, rating scale 0-100
Summary of the method: (§2)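 Visual 0–100 injury rating (100 = all plants dead) taken 14 days after treatment. Rates of 125–1000 g ai/ha in acetone, 187 l/ha, were sprayed onto soil one day post-sowing; pots were surface-watered to incorporate, then bottom-watered.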

[4] = test system: field corn (Zea mays L., var. Dekalb 535, CORN); assay: Pre-emerge greenhouse test, crop damage rating; conditions: 14 days after application, rating scale 0-100
Summary of the method: as §2

[5] = test system: soybean (Glycine max L., var. Pella 86, SOY); assay: Post-emerge greenhouse test, crop damage rating; conditions: 14 days after application
Summary of the method: as §1

[6] = test system: soybean (Glycine max L., var. Pella 86, SOY); assay: Pre-emerge greenhouse test, crop damage rating; conditions: 14 days after application, rating scale 0-100
Summary of the method: as §2

[7] = test system: common ragweed (Ambrosia artemisiifolia L., AMBEL); assay: Post-emerge greenhouse herbicide test, phytotoxicity rating; conditions: 14 days after application
Summary of the method: as §1

[8] = test system: lambsquarters (Chenopodium album, CHEAL); assay: as above; conditions: 14 days after application
Summary of the method: as §1

[9] = test system: Johnsongrass (Sorghum halepense, SORHA); assay: as above; conditions: 14 days after application
Summary of the method: as §1

[10] = test system: ivyleaf morningglory (Ipomoea hederacea, IPOHE); assay: as above; conditions: 14 days after application
Summary of the method: as §1

[11] = test system: velvetleaf (Abutilon theophrasti, ABUTH); assay: as above; conditions: 14 days after application
Summary of the method: as §1

[12] = test system: redroot pigweed (Amaranthus retroflexus, AMARE); assay: as above; conditions: 14 days after application
Summary of the method: as §1

[13] = test system: green foxtail (Setaria viridis, SETVI); assay: as above; conditions: 14 days after application
Summary of the method: as §1

[14] = test system: large crabgrass (Digitaria sanguinalis, DIGSA); assay: as above; conditions: 14 days after application
Summary of the method: as §1

[15] = test system: sicklepod (Cassia obtusifolia, CASOB); assay: as above; conditions: 14 days after application
Summary of the method: as §1

[16] = test system: barnyardgrass (Echinochloa crusgalli, ECHCG); assay: as above; conditions: 14 days after application
Summary of the method: as §1

[17] = test system: lambsquarters (Chenopodium album, CHEAL); assay: Pre-emerge greenhouse herbicide test, phytotoxicity rating; conditions: 14 days after application, rating scale 0-100
Summary of the method: as §2

[18] = test system: common ragweed (Ambrosia artemisiifolia L., AMBEL); assay: as above; conditions: 14 days after application, rating scale 0-100
Summary of the method: as §2

[19] = test system: Johnsongrass (Sorghum halepense, SORHA); assay: as above; conditions: 14 days after application, rating scale 0-100
Summary of the method: as §2

[20] = test system: ivyleaf morningglory (Ipomoea hederacea, IPOHE); assay: as above; conditions: 14 days after application, rating scale 0-100
Summary of the method: as §2

[21] = test system: velvetleaf (Abutilon theophrasti, ABUTH); assay: as above; conditions: 14 days after application, rating scale 0-100
Summary of the method: as §2

[22] = test system: redroot pigweed (Amaranthus retroflexus, AMARE); assay: as above; conditions: 14 days after application, rating scale 0-100
Summary of the method: as §2

[23] = test system: green foxtail (Setaria viridis, SETVI); assay: as above; conditions: 14 days after application, rating scale 0-100
Summary of the method: as §2

[24] = test system: large crabgrass (Digitaria sanguinalis, DIGSA); assay: as above; conditions: 14 days after application, rating scale 0-100
Summary of the method: as §2

[25] = test system: sicklepod (Cassia obtusifolia, CASOB); assay: as above; conditions: 14 days after application, rating scale 0-100
Summary of the method: as §2

[26] = test system: barnyardgrass (Echinochloa crusgalli, ECHCG); assay: as above; conditions: 14 days after application, rating scale 0-100
Summary of the method: as §2

Compound: O=c1n(CCCF)nnn1-c1cc(Oc2ncccc2[N+](=O)[O-])c(Cl)cc1F [Compound 6-2]
- RICE crop damage rating (0-100) ([1]; 63 g al/ha): 0
- RICE crop damage rating (0-100) ([1]; 500 g al/ha): 30
- CORN crop damage rating (0-100) ([2]; 63 g al/ha): 5
- CORN crop damage rating (0-100) ([2]; 500 g al/ha): 5
- crop damage rating RICE ([3]; 125 g ai/ha): 20
- crop damage rating RICE ([3]; 500 g ai/ha): 10
- crop damage rating CORN ([4]; 125 g ai/ha): 0
- crop damage rating CORN ([4]; 500 g ai/ha): 0
- SOY crop damage rating (0-100) ([5]; 63 g al/ha): 20
- SOY crop damage rating (0-100) ([5]; 500 g al/ha): 30
- crop damage rating SOY ([6]; 125 g ai/ha): 10
- crop damage rating SOY ([6]; 500 g ai/ha): 15
- AMBEL phytotoxicity rating (0-100) ([7]; 63 g al/ha): 10
- AMBEL phytotoxicity rating (0-100) ([7]; 500 g al/ha): 30
- CHEAL phytotoxicity rating (0-100) ([8]; 63 g al/ha): 50
- CHEAL phytotoxicity rating (0-100) ([8]; 500 g al/ha): 90
- SORHA phytotoxicity rating (0-100) ([9]; 63 g al/ha): 0
- SORHA phytotoxicity rating (0-100) ([9]; 500 g al/ha): 20
- IPOHE phytotoxicity rating (0-100) ([10]; 63 g al/ha): 20
- IPOHE phytotoxicity rating (0-100) ([10]; 500 g al/ha): 90
- ABUTH phytotoxicity rating (0-100) ([11]; 63 g al/ha): 98
- ABUTH phytotoxicity rating (0-100) ([11]; 500 g al/ha): 100
- AMARE phytotoxicity rating (0-100) ([12]; 63 g al/ha): 40
- AMARE phytotoxicity rating (0-100) ([12]; 500 g al/ha): 95
- SETVI phytotoxicity rating (0-100) ([13]; 63 g al/ha): 10
- SETVI phytotoxicity rating (0-100) ([13]; 500 g al/ha): 10
- DIGSA phytotoxicity rating (0-100) ([14]; 63 g al/ha): 0
- DIGSA phytotoxicity rating (0-100) ([14]; 500 g al/ha): 0
- CASOB phytotoxicity rating (0-100) ([15]; 63 g al/ha): 0
- CASOB phytotoxicity rating (0-100) ([15]; 500 g al/ha): 10
- ECHCG phytotoxicity rating (0-100) ([16]; 63 g al/ha): 0
- ECHCG phytotoxicity rating (0-100) ([16]; 500 g al/ha): 30
- phytotoxicity rating CHEAL ([17]; 125 g ai/ha): 100
- phytotoxicity rating CHEAL ([17]; 500 g ai/ha): 100
- phytotoxicity rating AMBEL ([18]; 125 g ai/ha): 30
- phytotoxicity rating AMBEL ([18]; 500 g ai/ha): 40
- phytotoxicity rating SORHA ([19]; 125 g ai/ha): 0
- phytotoxicity rating SORHA ([19]; 500 g ai/ha): 0
- phytotoxicity rating IPOHE ([20]; 125 g ai/ha): 10
- phytotoxicity rating IPOHE ([20]; 500 g ai/ha): 40
- phytotoxicity rating ABUTH ([21]; 125 g ai/ha): 90
- phytotoxicity rating ABUTH ([21]; 500 g ai/ha): 100
- phytotoxicity rating AMARE ([22]; 125 g ai/ha): 95
- phytotoxicity rating AMARE ([22]; 500 g ai/ha): 99
- phytotoxicity rating SETVI ([23]; 125 g ai/ha): 30
- phytotoxicity rating SETVI ([23]; 500 g ai/ha): 70
- phytotoxicity rating DIGSA ([24]; 125 g ai/ha): 0
- phytotoxicity rating DIGSA ([24]; 500 g ai/ha): 60
- phytotoxicity rating CASOB ([25]; 125 g ai/ha): 20
- phytotoxicity rating CASOB ([25]; 500 g ai/ha): 0
- phytotoxicity rating ECHCG ([26]; 125 g ai/ha): 0
- phytotoxicity rating ECHCG ([26]; 500 g ai/ha): 10

Compound: N#Cc1cccnc1Oc1cc(-n2nnn(CCCF)c2=O)c(F)cc1Cl [Compound 6-4]
- RICE crop damage rating (0-100) ([1]; 63 g al/ha): 20
- RICE crop damage rating (0-100) ([1]; 500 g al/ha): 35
- CORN crop damage rating (0-100) ([2]; 63 g al/ha): 10
- CORN crop damage rating (0-100) ([2]; 500 g al/ha): 20
- crop damage rating RICE ([3]; 125 g ai/ha): 15
- crop damage rating RICE ([3]; 500 g ai/ha): 35
- crop damage rating CORN ([4]; 125 g ai/ha): 0
- crop damage rating CORN ([4]; 500 g ai/ha): 10
- SOY crop damage rating (0-100) ([5]; 63 g al/ha): 20
- SOY crop damage rating (0-100) ([5]; 500 g al/ha): 60
- crop damage rating SOY ([6]; 125 g ai/ha): 0
- crop damage rating SOY ([6]; 500 g ai/ha): 20
- AMBEL phytotoxicity rating (0-100) ([7]; 63 g al/ha): 20
- AMBEL phytotoxicity rating (0-100) ([7]; 500 g al/ha): 20
- CHEAL phytotoxicity rating (0-100) ([8]; 63 g al/ha): 85
- CHEAL phytotoxicity rating (0-100) ([8]; 500 g al/ha): 100
- SORHA phytotoxicity rating (0-100) ([9]; 63 g al/ha): 0
- SORHA phytotoxicity rating (0-100) ([9]; 500 g al/ha): 80
- IPOHE phytotoxicity rating (0-100) ([10]; 63 g al/ha): 65
- IPOHE phytotoxicity rating (0-100) ([10]; 500 g al/ha): 85
- ABUTH phytotoxicity rating (0-100) ([11]; 63 g al/ha): 90
- ABUTH phytotoxicity rating (0-100) ([11]; 500 g al/ha): 100
- AMARE phytotoxicity rating (0-100) ([12]; 63 g al/ha): 75
- AMARE phytotoxicity rating (0-100) ([12]; 500 g al/ha): 99
- SETVI phytotoxicity rating (0-100) ([13]; 63 g al/ha): 20
- SETVI phytotoxicity rating (0-100) ([13]; 500 g al/ha): 40
- DIGSA phytotoxicity rating (0-100) ([14]; 63 g al/ha): 0
- DIGSA phytotoxicity rating (0-100) ([14]; 500 g al/ha): 0
- CASOB phytotoxicity rating (0-100) ([15]; 63 g al/ha): 15
- CASOB phytotoxicity rating (0-100) ([15]; 500 g al/ha): 50
- ECHCG phytotoxicity rating (0-100) ([16]; 63 g al/ha): 0
- ECHCG phytotoxicity rating (0-100) ([16]; 500 g al/ha): 60
- phytotoxicity rating CHEAL ([17]; 125 g ai/ha): 100
- phytotoxicity rating CHEAL ([17]; 500 g ai/ha): 100
- phytotoxicity rating AMBEL ([18]; 125 g ai/ha): 0
- phytotoxicity rating AMBEL ([18]; 500 g ai/ha): 40
- phytotoxicity rating SORHA ([19]; 125 g ai/ha): 20
- phytotoxicity rating SORHA ([19]; 500 g ai/ha): 100
- phytotoxicity rating IPOHE ([20]; 125 g ai/ha): 40
- phytotoxicity rating IPOHE ([20]; 500 g ai/ha): 100
- phytotoxicity rating ABUTH ([21]; 125 g ai/ha): 100
- phytotoxicity rating ABUTH ([21]; 500 g ai/ha): 100
- phytotoxicity rating AMARE ([22]; 125 g ai/ha): 100
- phytotoxicity rating AMARE ([22]; 500 g ai/ha): 100
- phytotoxicity rating SETVI ([23]; 125 g ai/ha): 100
- phytotoxicity rating SETVI ([23]; 500 g ai/ha): 100
- phytotoxicity rating DIGSA ([24]; 125 g ai/ha): 70
- phytotoxicity rating DIGSA ([24]; 500 g ai/ha): 100
- phytotoxicity rating CASOB ([25]; 125 g ai/ha): 50
- phytotoxicity rating CASOB ([25]; 500 g ai/ha): 30
- phytotoxicity rating ECHCG ([26]; 125 g ai/ha): 0
- phytotoxicity rating ECHCG ([26]; 500 g ai/ha): 95
